Source: patent publication US11214803B2, “Modulators of YAP1 expression” (Ionis Pharmaceuticals, Inc., priority 2019, dated 2022)
Strand notation (5' to 3'): a small letter for the sugar, then the base; units joined by * are phosphorothioate-linked, units joined directly phosphodiester-linked; [ ] holds rarer units or linkages, { } end groups; capitals alone tell only the bases. k = constrained ethyl (cEt); [5mC] = 5-methylcytosine; d = 2'-deoxy (DNA)

Tested on: Yap1 mRNA
Test: Antisense inhibition of human Yap1 in A-431 cells by cEt gapmers, single dose (Example 1, RTS4814)
Format: cell-based
Protocol: Modified oligonucleotides were designed to target a Yap1 nucleic acid and were tested for their effect on Yap1 mRNA level in vitro. The modified oligonucleotides were tested in a series of experiments that had similar culture conditions. Cultured A-431 cells at a density of 5,000 cells per well were treated using free uptake with 2,000 nM of modified oligonucleotide. After a treatment period of approximately 48 hours, RNA was isolated from the cells and Yap1 mRNA levels were measured by quantitative real-time RTPCR. Human primer probe set RTS4814 (forward sequence […], designated herein as SEQ ID NO.: 11; reverse sequence […], designated herein as SEQ ID NO.: 12; probe sequence […], designated herein as SEQ ID NO.: 13) was used to measure mRNA levels. Yap1 mRNA levels were normalized to total RNA content, as measured by RIBOGREEN®. Results are presented in the tables below as percent control of the amount of Yap1 mRNA relative to untreated control cells (% UTC). The modified oligonucleotides with percent control values marked with an asterisk (*) target the amplicon region of the primer probe set. Additional assays may be used to measure the potency and efficacy of the modified oligonucleotides targeting the amplicon region.
The newly designed modified oligonucleotides in the Tables below were designed as 3-10-3 cEt gapmers. The gapmers are 16 nucleosides in length, wherein the central gap segment comprises of ten 2′-deoxynucleosides and is flanked by wing segments on the 5′ direction and the 3′ direction comprising three nucleosides each. Each nucleoside in the 5′ wing segment and each nucleoside in the 3′ wing segment has a cEt sugar modification. The internucleoside linkages throughout each gapmer are phosphorothioate (P═S) linkages. All cytosine residues throughout each gapmer are 5-methylcytosines.
“Start site” indicates the 5′-most nucleoside to which the gapmer is targeted in the human gene sequence. “Stop site” indicates the 3′-most nucleoside to which the gapmer is targeted human gene sequence. […] Activity of the modified oligonucleotide may be defined in a different experiment.

[1] = Table 1, A-431 cells, free uptake, 2,000 nM, approximately 48 hours, RTS4814, Yap1 mRNA relative to untreated control cells
[2] = Table 2, A-431 cells, free uptake, 2,000 nM, approximately 48 hours, RTS4814, Yap1 mRNA relative to untreated control cells
[3] = A-431 cells, 5,000 cells per well, free uptake, 2,000 nM modified oligonucleotide, approx. 48 hours, RTS4814, normalized to RIBOGREEN, Table 3

Substance	YAP1 (% UTC) [1] [% UTC]	YAP1 (% UTC) [3] [% UTC]	other results
715589 (k[5mC]*k[5mC]*kA*dG*d[5mC]*dA*dG*d[5mC]*dT*dA*dA*d[5mC]*dA*kG*k[5mC]*kT; antisense) [Compound 715589]	107		
715620 (antisense kA*kA*kA*dA*dA*dT*dA*dA*dG*dA*d[5mC]*dG*dG*kA*kT*kA) [Compound 715620]			YAP1 (% UTC) [2]: 111 % UTC
715405 (kT*kG*kA*dA*dG*dA*dA*dG*dG*dA*dG*dT*d[5mC]*kG*kG*kG; antisense) [Compound 715405]		60	
715433 (antisense kT*kG*kT*dT*d[5mC]*dT*dT*dA*dT*dG*dG*dT*dT*kT*kA*kT) [Compound 715433]	36		
715549 (kG*kA*kA*dG*dT*dT*dG*dT*dT*dG*dA*d[5mC]*d[5mC]*kA*kA*k[5mC]; antisense) [Compound 715549]		66	
715402 (kA*kG*kG*dA*dG*dT*d[5mC]*dG*dG*dG*d[5mC]*dA*dG*k[5mC]*kT*kT; antisense) [Compound 715402]		59	
715448 (antisense k[5mC]*kT*k[5mC]*dA*dA*dT*dT*d[5mC]*d[5mC]*dT*dG*dA*dG*kA*k[5mC]*kA) [Compound 715448]	97		
715409 (k[5mC]*kA*kG*dT*dA*d[5mC]*dT*dG*dG*d[5mC]*d[5mC]*dT*dG*kT*k[5mC]*kG; antisense) [Compound 715409]	76		
715564 (k[5mC]*kA*kA*dG*d[5mC]*dA*d[5mC]*dA*d[5mC]*dA*dA*d[5mC]*dT*k[5mC]*kA*kG; antisense) [Compound 715564]		75	
715533 (k[5mC]*k[5mC]*kT*dA*dA*d[5mC]*dA*dA*d[5mC]*d[5mC]*dT*dG*dG*kT*kT*kT; antisense) [Compound 715533]			YAP1 (% UTC) [2]: 97 % UTC
715631 (antisense kA*kT*kA*dA*dG*dA*dG*d[5mC]*d[5mC]*dT*dA*d[5mC]*d[5mC]*kT*kG*kA) [Compound 715631]	134		
715484 (antisense kT*kA*k[5mC]*dT*d[5mC]*dT*dT*dT*dG*dG*dA*dA*dA*k[5mC]*k[5mC]*kA) [Compound 715484]	123		
715447 (antisense k[5mC]*kA*kA*dT*dT*d[5mC]*d[5mC]*dT*dG*dA*dG*dA*d[5mC]*kA*kT*k[5mC]) [Compound 715447]		81	
715502 (antisense k[5mC]*k[5mC]*kA*dG*dA*d[5mC]*dT*dT*dA*dA*dT*dT*d[5mC]*kA*kA*kG) [Compound 715502]	91		
715593 (antisense kA*kT*kT*dT*d[5mC]*dT*dT*dT*dG*dG*d[5mC]*dA*dG*kA*kG*kA) [Compound 715593]			YAP1 (% UTC) [2]: 60 % UTC
715538 (k[5mC]*kT*kT*dT*dG*dT*dA*dA*d[5mC]*dT*dT*dA*dA*kA*kA*kG; antisense) [Compound 715538]	110		
715594 (antisense kA*kT*kA*dT*dT*dT*d[5mC]*dT*dT*dT*dG*dG*d[5mC]*kA*kG*kA) [Compound 715594]		39	
